This is an account of results in patent US20060194800A1, “Pteridine derivatives as nitric oxide synthase activators” (University of Strathclyde, priority 2005, published 2006).

The test system of assay [1] is rat pulmonary artery. In words: Rat pulmonary artery ring relaxation (endogenous tetrahydrobiopterin present). The conditions noted are these: normal rings, phenylephrine-contracted. On the procedure:
Rings (5 mm long) of rat pulmonary artery and aorta, were supported on a pair of intraluminal wires at 1 gm tension for one hour and then contracted with their EC50 phenylephrine concentration, which for pulmonary artery was 3.6×10^−8 M (derived from preliminary experiments) and for aorta was 11.8×10^−8 M (from the previously published literature). The rings were then relaxed with carbachol (10 μM). If the relaxation to carbachol was >75%, then the tissues were used to generate dose responses by addition of tetrahydrobiopterin (BH4) or the analogues. Stock BH4 was stored at −20° C. and the dilutions were prepared using saline just before adding the drug into the bath. Solutions of analogues were stored at 4° C. Cumulatively increasing concentrations of the analogues were added to the bath and the extent of relaxation was measured when it had stabilised. Another ring from the same rat was treated in parallel with the solvent for the analogue. The solvent used was NH4OH. The results are shown graphically in FIGS. 1 and 2.

The test system of assay [2] is rat pulmonary artery. The experiment in a line: BH4 depleted (DAHP) rat pulmonary artery relaxation. On the procedure: Rat pulmonary artery or aorta rings (as above) were placed in 15 ml tubes containing 2-3 ml of MEM (minimal essential medium) solution containing 0.1% bovine serum albumin, 100 U/ml penicillin and […] streptomycin. Some of the tubes in addition received diamino-hydroxy-pyrimidine (DAHP) 10^−2 M, an inhibitor of GTP cyclohydrolase, the rate-limiting step in tetrahydrobiopterin synthesis. The tubes were incubated at 37° C. for six hours. […] After the incubation with DAHP or the control incubation with the medium (MEM) alone, the rings were removed and then their relaxation in response to the analogue (or solvent NH4OH) was tested as above. Dose response curves of DAHP-treated tissues were compared to the control tissues treated in MEM alone for 6 hrs. The results are shown graphically in FIGS. 3 and 4. […] Thus WSG1002 is acting to enhance the ability of the endothelium to form NO and is not acting merely as a NO donor. The above procedures were used to mimic cardiovascular disease, by treating aorta and pulmonary artery rings with an inhibitor of the enzyme GTP cyclohydrolase, which is the rate-limiting step in the formation of tetrahydrobiopterin by cells. Treatment with this inhibitor, DAHP, for 6 hours reduced endogenous tetrahydrobiopterin levels in arteries to 4% of the normal content. […] This was found in both pulmonary artery and aorta (FIGS. 3 and 4). […] The only effect seen was a contraction—the opposite to the action of WSG1002—at the highest concentration of tetrahydrobiopterin. […] WSG1002 has an EC50 of approximately 10 nM.

Assay [3] has as its system rat aorta. In words: BH4 depleted (DAHP) rat aorta relaxation. The conditions noted are these: DAHP 10^-2 M for 6 h, tetrahydrobiopterin depleted. On the procedure:
Rat pulmonary artery or aorta rings (as above) were placed in 15 ml tubes containing 2-3 ml of MEM (minimal essential medium) solution containing 0.1% bovine serum albumin, 100 U/ml penicillin and […] streptomycin. Some of the tubes in addition received diamino-hydroxy-pyrimidine (DAHP) 10^−2 M, an inhibitor of GTP cyclohydrolase, the rate-limiting step in tetrahydrobiopterin synthesis. The tubes were incubated at 37° C. for six hours. […] After the incubation with DAHP or the control incubation with the medium (MEM) alone, the rings were removed and then their relaxation in response to the analogue (or solvent NH4OH) was tested as above. Dose response curves of DAHP-treated tissues were compared to the control tissues treated in MEM alone for 6 hrs. The results are shown graphically in FIGS. 3 and 4. The above procedures were used to mimic cardiovascular disease, by treating aorta and pulmonary artery rings with an inhibitor of the enzyme GTP cyclohydrolase, which is the rate-limiting step in the formation of tetrahydrobiopterin by cells. Treatment with this inhibitor, DAHP, for 6 hours reduced endogenous tetrahydrobiopterin levels in arteries to 4% of the normal content. […] This was found in both pulmonary artery and aorta (FIGS. 3 and 4). […] The only effect seen was a contraction—the opposite to the action of WSG1002—at the highest concentration of tetrahydrobiopterin. […]

Assay [4] has as its target T1, iNOS (Mus musculus, UniProt P29477).
T1 construct: stimulated macrophages that produce iNOS; endogenous in cells; host or cells: primary mouse macrophages (from femur), LPS-stimulated, DAHP-treated
In words: Macrophage assay (iNOS), macrophages depleted of tetrahydrobiopterin by DAHP. The assay is classed as cell-based.
Description: This is a cell based assay with lipopolysaccharide stimulated macrophages in which nitric oxide is produced by the action of iNOS. Primary cultures of macrophage cells isolated from mouse femur were produced over a 7 day period. At this stage the cells were seeded into 96-well culture plates at a density of 2×10^5 cells per well. After further incubation for 24 hrs, the well media was changed and the relevant treatment was introduced. The cells were then incubated for a further 72 hrs before 50 μl was removed from each well and combined with 100 μl of Greiss reagent for NO2 determination. All treatments were performed in triplicate. In each plate, 3 wells were designated control i.e. media change only-no LPS. These samples represent basal NO2 output over 72 hrs. 3 wells were used for LPS (0.5 μg/ml) stimulation alone and 3 wells were used for LPS+0.05% DMSO. This DMSO concentration was present in all subsequent analogue treated wells. All analogues were tested at 1.0 and 10 μM. In another set of experiments, the assay was repeated with the inclusion of a step to deplete endogenous tetrahydrobiopterin as in the artery ring studies. DAHP pre-treatment was employed to deplete the macrophage cells of endogenous tetrahydrobiopterin. In these experiments, DAHP (10^−2 M) was added to the cells for 24 hrs prior to seeding into 96-well plates and for 24 hrs following the seeding procedure. Thereafter, DAHP was present throughout the analogue treatment period of 72 hrs. […] Macrophages were initially depleted of tetrahydrobiopterin by incubation with DAHP.

Assay [5] relates to rat lungs. In words: Calcium ionophore-induced pulmonary vasodilation in perfused lungs of rats treated with WSG1002. In kind it is in vivo. The conditions noted are these: 14.1 mg/kg/day s.c. On the procedure:
Rats were maintained in a chamber containing atmospheric air at 550 mbar for 14 days.
A group of normotensive and a group of pulmonary hypertensive rats received daily subcutaneous injections of WSG1002 in a dose of 14.1 mg/kg/day during the time that they were in the hypoxic chamber. Other groups of normotensive and pulmonary hypertensive rats had no drugs and are used as control comparison groups. These studies used lungs from the four groups of rats (1) pulmonary hypertensive and treated with WSG1002, (2) normotensive and treated with WSG1002, (3) pulmonary hypertensive and not treated with WSG1002 (4) normotensive and not treated with WSG1002.
The rats lungs were perfused at constant flow through the pulmonary artery with measurement of perfusion pressure and maintained at 37° C. […]
The lungs were precontracted with the thromboxane A2 mimetic, 9,11-dideoxy-11α,9α-epoxymethanoprostaglandin F2α (U46619, 3×10^−5 M) given as a bolus dose via an injection port. […] Following return to 20% O2, the lungs were precontracted again with a bolus dose of U46619 and relaxation responses to the endothelium-dependent vasorelaxant, calcium ionophore were measured by adding it in increasing doses to the perfusate. The data was plotted as concentration-response curves from which IC50 values were calculated using Biograph program by fitting the curves to the Hill equation y=RMax/(1+(x/EC50)ˆP).

pEC50: −log10 of the molar value. Entries after “also recorded” stand apart in the source; their conditions may differ.

T1 sequence (P29477 whole entry): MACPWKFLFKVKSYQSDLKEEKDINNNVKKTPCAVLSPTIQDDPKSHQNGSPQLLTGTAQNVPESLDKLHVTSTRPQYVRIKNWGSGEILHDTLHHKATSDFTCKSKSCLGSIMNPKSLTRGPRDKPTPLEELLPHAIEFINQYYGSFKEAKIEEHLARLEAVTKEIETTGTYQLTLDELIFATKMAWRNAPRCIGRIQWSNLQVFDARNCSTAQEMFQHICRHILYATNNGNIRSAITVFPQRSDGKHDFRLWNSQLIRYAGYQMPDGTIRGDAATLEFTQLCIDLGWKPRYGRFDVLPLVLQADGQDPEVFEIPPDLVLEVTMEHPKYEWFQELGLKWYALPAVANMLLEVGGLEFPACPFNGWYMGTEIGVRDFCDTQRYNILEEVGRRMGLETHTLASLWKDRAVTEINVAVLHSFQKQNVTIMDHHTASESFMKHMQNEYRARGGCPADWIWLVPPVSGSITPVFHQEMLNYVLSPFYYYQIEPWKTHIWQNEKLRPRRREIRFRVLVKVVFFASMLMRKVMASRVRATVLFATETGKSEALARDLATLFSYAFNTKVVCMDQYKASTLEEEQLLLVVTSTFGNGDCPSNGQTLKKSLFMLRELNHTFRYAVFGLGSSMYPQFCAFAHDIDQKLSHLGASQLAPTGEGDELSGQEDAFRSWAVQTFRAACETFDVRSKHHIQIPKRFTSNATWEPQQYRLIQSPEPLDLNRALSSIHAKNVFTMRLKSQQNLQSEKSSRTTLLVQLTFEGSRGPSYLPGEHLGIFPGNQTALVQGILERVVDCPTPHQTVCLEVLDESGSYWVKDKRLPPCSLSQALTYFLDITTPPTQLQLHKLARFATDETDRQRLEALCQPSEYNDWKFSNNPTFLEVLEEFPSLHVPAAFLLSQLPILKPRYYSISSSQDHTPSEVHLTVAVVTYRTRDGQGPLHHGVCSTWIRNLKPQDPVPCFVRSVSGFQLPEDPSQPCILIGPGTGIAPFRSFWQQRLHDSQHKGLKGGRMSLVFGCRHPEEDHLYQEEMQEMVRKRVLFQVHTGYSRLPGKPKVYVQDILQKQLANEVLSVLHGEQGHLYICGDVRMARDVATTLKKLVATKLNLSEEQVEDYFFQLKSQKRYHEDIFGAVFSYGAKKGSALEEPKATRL

The term pEC50 denotes the negative decadic logarithm of the EC50, by convention in mol/L. Turning to `CC(=O)C1=Nc2c(nc(N)[nH]c2=O)NC1(C)C` [wsg1002, 6-Acetyl-2-amino-7,7-dimethyl-7,8-dihydro-3H-pteridin-4-one], the “relaxation of rat pulmonary artery rings” value is “no action; also recorded: no effect” in assay [1]; “significant and physiologically important vasodilatation; also recorded: substantial relaxation” in assay [2] (DAHP 10^-2 M for 6 h, tetrahydrobiopterin depleted). Also, the “relaxation of pulmonary artery ring in presence of L-NAME” value in assay [2] (L-NAME 100 μM, same result in normal and DAHP-treated rings) is “no relaxation”. This molecule also gave a pEC50 in assay [2] (Rattus norvegicus, DAHP-treated artery rings, tissue not specified) of about 8.00. For the same molecule, the “relaxation of rat aorta rings” value in assay [3] was “significant and physiologically important vasodilatation; also recorded: significant relaxation”. Besides, the activation at 1 µM in assay [4] (72 h, tested at 1 microM in macrophages, P = promotes NOS activity, read-out: iNOS effect *H155) is 20 to 50%. Further, in assay [4] (DAHP 10^-2 M depleted macrophages, 72 hrs), the “stimulation of nitric oxide synthesis vs controls” value was “increases were statistically significant”. Further, the “IC50 for calcium ionophore relaxation” value in assay [5] (normotensive rats, untreated 1.5 μM) was found to be 1100 nM; in assay [5] (pulmonary hypertensive (hypoxic) rats, untreated 1.7 μM) it was 1200 nM.
